According to US20240174690A1, “ANNULATED 2-AMINO-3-CYANO THIOPHENES AND DERIVATIVES FOR THE TREATMENT OF CANCER” (BOEHRINGER INGELHEIM INTERNATIONAL GMBH, priority 2021, published 2024):

What was measured:
[1] = test system: KRAS G12V-dependent Ba/F3 cells; experiment: Ba/F3 proliferation assay, KRAS G12V; type: cell-based; settings: Mus musculus, BaF3, 72 h, AlamarBlue;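 further: proliferation IC50 in KRAS G12V-dependent Ba/F3 cells read by AlamarBlue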
Outline: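 IL-3-independent Ba/F3 lines driven by transduced KRAS G12C, G12D or G12V, with puromycin withdrawn about ten days before testing. Viability after compound treatment measured by AlamarBlue fluorescence in duplicate, and values derived by curve fitting.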

[2] = Caco-2 assay (permeability PappAB, PappBA, efflux ratio); type: in vitro ADME; settings: human, Caco-2, 10 μM test compound, pH 7.4; for Papp A→B at 90 min, 10 μM: apical to basolateral; for efflux ratio at 90 min, 10 μM: efflux ratio PappBA/PappAB, read-out: Caco ER
Outline: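 Bidirectional permeability (apical-to-basolateral and reverse) through polarized Caco-2 monolayers, BSA 0.25% on each side, 37 °C. Donor and receiver sampled at 0-90 min after 25-30 min preincubation, analysed by HPLC/MS/MS. Apparent permeabilities derived from transfer rate normalised to area and t=0 donor concentration; ER taken as PappBA over PappAB.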

Structure (SMILES)	IC50 [1]	Papp A→B at 90 min, 10 μM [2]	efflux ratio at 90 min, 10 μM [2]
CO[C@@H]1C[C@@H]([C@H](C)Oc2cc(N3CCNC4(CC4)C3)nc(-c3noc4c3CCC[C@@]43CCCc4sc(N)c(C#N)c43)n2)N(C)C1 [II-187]	225 nM	5.4 ×10⁻⁶ cm/s	4.6
C[C@H](Oc1cc(N2C[C@@H]3[C@@H](N)[C@@H]3C2)nc(-c2noc3c2CCC[C@@]32CCCc3sc(N)c(C#N)c32)n1)[C@@H]1CCCN1C [II-167]	879 nM	0.3 ×10⁻⁶ cm/s	82.1
CC(C)N1CCCN(c2cc(-c3ccn(C)n3)nc(-c3noc4c3CCC[C@@]43CCCc4sc(N)c(C#N)c43)n2)[C@@H](C)C1 [II-170]	17 nM	3.3 ×10⁻⁶ cm/s	7
C[C@H](Oc1cc(-n2ccc(C(=O)N[C@@H]3CCOC3)n2)nc(-c2noc3c2CCC[C@@]32CCCc3sc(N)c(C#N)c32)n1)[C@@H]1CCCN1C [II-192]	2 nM	10 ×10⁻⁶ cm/s	2.5
CO[C@H]1CCN(C)[C@@H]1[C@H](C)Oc1cc(N2CCNC3(CC3)C2)nc(-c2noc3c2CCC[C@@]32CCCc3sc(N)c(C#N)c32)n1 [II-184]	155 nM		2.3
C[C@H](Oc1cc(-n2ccc(C(=O)N(C)C3COC3)n2)nc(-c2noc3c2CCC[C@@]32CCCc3sc(N)c(C#N)c32)n1)[C@@H]1CCCN1C [II-194]	4 nM	11 ×10⁻⁶ cm/s	2.6
C[C@H](Oc1cc(-c2ccn(C[C@H]3CCOC3)n2)nc(-c2noc3c2CCC[C@@]32CCCc3sc(N)c(C#N)c32)n1)[C@@H]1CCCN1C [II-129]	9 nM	4.2 ×10⁻⁶ cm/s	5.2
C[C@H](Oc1nc(-c2noc3c2CCC[C@@]32CCCc3sc(N)c(C#N)c32)nc(N2CCNC3(CC3)C2)c1F)[C@@H]1C[C@@H](F)CN1C [II-155]	185 nM		2.9
C[C@H](Oc1cc(-n2ccc(-c3cn([C@@H]4CCOC4)nn3)n2)nc(-c2noc3c2CCC[C@@]32CCCc3sc(N)c(C#N)c32)n1)[C@@H]1CCCN1C [II-211]	3 nM		2.2
C[C@H](Oc1cc(-n2cnc(C(=O)N(C)C)c2)nc(-c2noc3c2CCC[C@@]32CCCc3sc(N)c(C#N)c32)n1)[C@@H]1CCCN1C [II-126]	26 nM	2 ×10⁻⁶ cm/s	11
C[C@H](Oc1cc(N2CCNC3(COC3)C2)nc(-c2noc3c2CCC[C@@]32CCCc3sc(N)c(C#N)c32)n1)[C@@H]1C[C@@H](F)CN1C [II-150]	77 nM	2.5 ×10⁻⁶ cm/s	11.6
C[C@H](Oc1cc(-n2cc3c(n2)CNC3)nc(-c2noc3c2CCC[C@@]32CCCc3sc(N)c(C#N)c32)n1)[C@@H]1CCCN1C [II-168]	26 nM	1 ×10⁻⁶ cm/s	39.5
C[C@H](Oc1cc(-n2nccc2-c2ccncc2)nc(-c2noc3c2CCC[C@@]32CCCc3sc(N)c(C#N)c32)n1)[C@@H]1CCCN1C [II-131]	19 nM		0.9
C[C@H](Oc1nc(-c2noc3c2CCC[C@@]32CCCc3sc(N)c(C#N)c32)nc(N2C[C@H](C)NC3(CC3)C2)c1F)[C@@H]1C[C@@H](F)CN1C [II-157]	258 nM		0.7
C[C@H](Oc1cc(-n2ccc(-c3cn(CC4(C)COC4)nn3)n2)nc(-c2noc3c2CCC[C@@]32CCCc3sc(N)c(C#N)c32)n1)[C@@H]1CCCN1C [II-213]	6 nM		2.6
C[C@H](Oc1cc(-n2cc(-c3cncs3)nn2)nc(-c2noc3c2CCC[C@@]32CCCc3sc(N)c(C#N)c32)n1)[C@@H]1CCCN1C [II-125]	16 nM		1.3
CC(C)N1CCCN(c2cc(-n3ccnc3)nc(-c3noc4c3CCC[C@@]43CCCc4sc(N)c(C#N)c43)n2)[C@@H](C)C1 [II-169]	61 nM		9.6
C[C@H](Oc1nc(-c2noc3c2CCC[C@@]32CCCc3sc(N)c(C#N)c32)nc(N2CCNC3(CC3)C2)c1Cl)[C@@H]1C[C@@H](F)CN1C [II-156]	271 nM		1.8
CO[C@@H]1C[C@@H]([C@H](C)Oc2cc(N3CCN(C)C4(COC4)C3)nc(-c3noc4c3CCC[C@@]43CCCc4sc(N)c(C#N)c43)n2)N(C)C1 [II-153]	2380 nM	1.2 ×10⁻⁶ cm/s	30
C[C@H](Oc1cc(N2C[C@H](C)N(C)[C@@H](C)C2)nc(-c2noc3c2CCC[C@@]32CCCc3sc(N)c(C#N)c32)n1)[C@@H]1CCCN1C [II-173]	678 nM	8.7 ×10⁻⁶ cm/s	19.9
C[C@H](Oc1cc(-n2cc3ccn(C4CCOCC4)c(=O)c3n2)nc(-c2noc3c2CCC[C@@]32CCCc3sc(N)c(C#N)c32)n1)[C@@H]1CCCN1C [II-206]	3 nM		16.8
